# Measurements published in article PMC4156793 (Vascular Cell, 2014).
# Marks after values point to notes of the source that are not given here.
# Experiments:
# [1] = test system: VEGF-driven in vivo angiogenesis (KP-1/VEGF transfectants); experiment: Mouse dorsal air sac (DAS) assay, KP-1/VEGF; conditions: 100 and 300 mg/kg, orally once daily for 4 days
# Procedure: (§1) An in vivo angiogenesis assay in mice was performed as described previously with minor changes. Millipore chambers (Millipore, Bedford, MA) were packed with 1.0 × 10^7 KP-1 mock, KP-1/VEGF or KP-1/FGF transfectants and transplanted into the dorsal air sac of C57BL/6 mice (n = 3–5 each, with experiments performed in triplicate). For a pseudo-operation, collagen I gel was injected into the Millipore chambers. Photographs were taken 4 days after implantation.
# (§2) (A) In vivo angiogenesis in mouse DAS assay. Angiogenesis was induced by overexpressed human VEGF121 (KP-1/VEGF) or mouse FGF4 (KP-1/FGF) in human pancreatic cancer KP-1 cells at the mouse dorsal skin. Representative photographs are shown. […] Compounds were administered orally once daily for 4 days at the indicated doses. Data are the mean ± std. *: p < 0.05 and **: p < 0.01 compared to vehicle.
# [2] = test system: FGF-driven in vivo angiogenesis (KP-1/FGF transfectants); experiment: Mouse dorsal air sac (DAS) assay, KP-1/FGF; conditions: 100 mg/kg, orally once daily for 4 days
# Procedure: as §1, §2
# [3] = test system: FGFR-driven proliferation; conditions: read-out: IC50, FGFR-driven proliferation in cell assays; cited from earlier work
# HUVECs [4] = experiment: FGF-2 induced sandwich tube formation (sTF) of HUVECs; assay type: cell-based; conditions: Homo sapiens, HUVEC, 96 h; sTF assay, EGF 10 ng/mL with FGF2 20 ng/ml, 4 days
# Procedure: (§3) In vitro sandwich tube formation (sTF) assay, HUVECs in SFM containing EGF (10 ng/mL) with VEGF (20 ng/mL) or FGF2 (20 ng/ml) were plated onto the 1st layer of collagen gel (Nitta Gelatin, Tokyo, Japan) at 1.0 × 10^5 cells in 24-well plates and a 2nd layer of collagen gel was added onto the HUVECs. […] After 4 days, MTT solution was added and photomicrographs of tube formation were taken with a light microscope. The tube length of capillaries was measured using image analysis (Angiogenesis Image Analyzer, ver. 1.04; Kurabo, Osaka, Japan).
# H460 (Lung) xenograft = experiment: Subcutaneous xenograft model, H460; assay type: in vivo, mouse
# Procedure: (§4) Tumor cells were injected subcutaneously into the right flank region of 7-week-old nude mice. […] Tumor diameters were measured with a vernier caliper and body weight was measured twice weekly. The tumor volume (mm^3) was calculated using the formula: length (mm) × width (mm)^2 × 1/2. […] When the tumor volume was reduced, the ΔT/C values were calculated by the following formula: ΔT/C (%) = (TVn - TV1)/TV1 × 100, where TVn is the tumor volume of treated mice at day n. The number of mice is ten for control group in Table 1 and five for each group in other experiments. Mice in control group were treated with vehicle.
# SEKI model = experiment: Subcutaneous xenograft model, SEKI; assay type: in vivo, mouse; conditions: 100 mg/kg orally twice daily for 7 days
# Procedure: as §4
# Each group consisted of 5 mice. […] The relationship between the antitumor activity and MVD is shown in (B), and that between the antitumor activity and the % of pericyte coverage of vessels is shown in (C). Each symbol (○) indicates the mean of MVD or pericyte coverage in each tumor xenograft model. (D) Vascular score in the lenvatinib-sensitive and –relatively resistant groups. The vascular score was the sum of the MVD and pericyte coverage scores.
# MDA-MB 435 (Melanoma) = experiment: Tumor cell proliferation assay (MTT), MDA-MB 435; assay type: cell-based; conditions: Homo sapiens, read-out: IC50 in vitro anti-proliferative activity
# Procedure: (§5) Tumor cells were plated at 1 to 2 × 10^3 cells/well on 96-well plates in 0.1 ml of RPMI 1640 containing 10% FBS. […] The HUVEC proliferation assay were performed by a method described previously. […] Percent inhibition of cell growth was determined by the formula below: Inhibition (%) = Mean value of OD of control wells - OD of treated wells * 100/Mean value of OD of control wells. Each value is expressed as the mean. […] All experiments were done in either duplicate or quadruplicate.
# HUVECs [5] = experiment: VEGF-induced proliferation of HUVECs; assay type: cell-based; conditions: Homo sapiens, HUVEC, 72 h; VEGF 20 ng/mL, 3 days, WST-1
# Procedure: (§6) Tumor cells were plated at 1 to 2 × 10^3 cells/well on 96-well plates in 0.1 ml of RPMI 1640 containing 10% FBS. […] The HUVEC proliferation assay were performed by a method described previously. […] After incubation for 3 days, cell viability was determined by measuring the absorbance of WST-1 reagent (DOJINDO, Kumamoto, Japan). Percent inhibition of cell growth was determined by the formula below: Inhibition (%) = Mean value of OD of control wells - OD of treated wells * 100/Mean value of OD of control wells. Each value is expressed as the mean. […] All experiments were done in either duplicate or quadruplicate.
# FGFR3 = target: T1, FGFR3 (Homo sapiens, UniProt P22607); experiment: In vitro kinase assay FGFR3; assay type: biochemical
# T1 construct: purchased Carna Biosciences, Inc. (Kobe, Japan)
# T1 sequence (P22607 23-806): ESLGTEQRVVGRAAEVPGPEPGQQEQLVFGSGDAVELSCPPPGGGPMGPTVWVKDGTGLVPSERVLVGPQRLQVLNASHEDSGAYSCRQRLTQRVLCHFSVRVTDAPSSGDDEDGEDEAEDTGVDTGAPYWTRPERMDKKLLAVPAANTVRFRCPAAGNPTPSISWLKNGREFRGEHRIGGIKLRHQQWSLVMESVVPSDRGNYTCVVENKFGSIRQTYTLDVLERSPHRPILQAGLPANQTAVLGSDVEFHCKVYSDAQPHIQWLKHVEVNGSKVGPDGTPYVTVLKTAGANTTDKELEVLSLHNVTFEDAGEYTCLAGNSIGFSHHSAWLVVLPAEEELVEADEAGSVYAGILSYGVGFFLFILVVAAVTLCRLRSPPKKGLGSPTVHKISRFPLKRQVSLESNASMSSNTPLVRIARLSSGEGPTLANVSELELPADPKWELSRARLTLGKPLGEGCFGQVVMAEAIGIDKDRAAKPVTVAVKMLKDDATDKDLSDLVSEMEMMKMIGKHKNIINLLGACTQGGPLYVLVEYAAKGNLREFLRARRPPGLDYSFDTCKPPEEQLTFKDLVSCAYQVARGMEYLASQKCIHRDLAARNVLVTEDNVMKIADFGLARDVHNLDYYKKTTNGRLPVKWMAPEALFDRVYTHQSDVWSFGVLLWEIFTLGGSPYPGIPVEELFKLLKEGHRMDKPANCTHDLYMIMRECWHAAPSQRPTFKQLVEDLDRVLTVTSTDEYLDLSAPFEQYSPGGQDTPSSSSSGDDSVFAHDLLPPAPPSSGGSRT
# Procedure: (§7) Tyrosine kinase assays were performed by an ELISA and Off-chip Mobility Shift Assay (MSA) by Carna Biosciences, Inc. (Kobe, Japan).
# H460 (Lung) = experiment: Tumor cell proliferation assay (MTT), H460; assay type: cell-based; conditions: Homo sapiens, NCI-H460; read-out: IC50 in vitro anti-proliferative activity
# Procedure: as §5
# FGFR2 = target: T2, FGFR2 (Homo sapiens, UniProt P21802); experiment: In vitro kinase assay FGFR2; assay type: biochemical
# T2 construct: purchased Carna Biosciences, Inc. (Kobe, Japan)
# T2 sequence (P21802 22-821): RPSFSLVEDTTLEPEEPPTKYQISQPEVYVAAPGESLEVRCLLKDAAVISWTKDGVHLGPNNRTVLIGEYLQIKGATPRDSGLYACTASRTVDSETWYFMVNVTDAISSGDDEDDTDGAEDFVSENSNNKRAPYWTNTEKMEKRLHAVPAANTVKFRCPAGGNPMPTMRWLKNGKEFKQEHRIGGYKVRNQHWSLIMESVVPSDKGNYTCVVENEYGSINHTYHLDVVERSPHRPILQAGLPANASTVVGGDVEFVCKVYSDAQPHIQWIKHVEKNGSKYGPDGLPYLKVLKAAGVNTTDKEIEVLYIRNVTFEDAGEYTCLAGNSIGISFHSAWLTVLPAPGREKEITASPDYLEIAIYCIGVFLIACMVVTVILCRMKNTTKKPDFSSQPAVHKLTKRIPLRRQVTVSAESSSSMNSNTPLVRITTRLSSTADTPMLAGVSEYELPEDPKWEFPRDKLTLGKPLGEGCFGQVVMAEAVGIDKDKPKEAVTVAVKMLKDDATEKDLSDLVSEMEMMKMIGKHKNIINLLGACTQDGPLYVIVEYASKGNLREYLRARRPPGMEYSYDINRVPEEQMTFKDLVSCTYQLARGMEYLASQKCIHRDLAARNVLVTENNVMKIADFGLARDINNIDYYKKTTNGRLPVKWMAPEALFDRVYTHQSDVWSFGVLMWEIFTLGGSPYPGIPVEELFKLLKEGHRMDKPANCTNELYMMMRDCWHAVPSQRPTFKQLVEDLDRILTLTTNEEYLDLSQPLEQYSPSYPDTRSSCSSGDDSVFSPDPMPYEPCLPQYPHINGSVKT
# Procedure: as §7
# SK-OV-3 (Ovary) = experiment: Tumor cell proliferation assay (MTT), SK-OV-3; assay type: cell-based; conditions: Homo sapiens, read-out: IC50 in vitro anti-proliferative activity
# Procedure: as §5
# MIApaca-II (Pancreas) = experiment: Tumor cell proliferation assay (MTT), MIApaca-II; assay type: cell-based; conditions: Homo sapiens, read-out: IC50 in vitro anti-proliferative activity
# Procedure: as §5
# VEGFR3 (FLT4) = target: T3, VEGFR3 (FLT4) (Homo sapiens, UniProt P35916); experiment: In vitro kinase assay VEGFR3 (FLT4); assay type: biochemical
# T3 construct: purchased Carna Biosciences, Inc. (Kobe, Japan)
# T3 sequence (P35916 25-1363): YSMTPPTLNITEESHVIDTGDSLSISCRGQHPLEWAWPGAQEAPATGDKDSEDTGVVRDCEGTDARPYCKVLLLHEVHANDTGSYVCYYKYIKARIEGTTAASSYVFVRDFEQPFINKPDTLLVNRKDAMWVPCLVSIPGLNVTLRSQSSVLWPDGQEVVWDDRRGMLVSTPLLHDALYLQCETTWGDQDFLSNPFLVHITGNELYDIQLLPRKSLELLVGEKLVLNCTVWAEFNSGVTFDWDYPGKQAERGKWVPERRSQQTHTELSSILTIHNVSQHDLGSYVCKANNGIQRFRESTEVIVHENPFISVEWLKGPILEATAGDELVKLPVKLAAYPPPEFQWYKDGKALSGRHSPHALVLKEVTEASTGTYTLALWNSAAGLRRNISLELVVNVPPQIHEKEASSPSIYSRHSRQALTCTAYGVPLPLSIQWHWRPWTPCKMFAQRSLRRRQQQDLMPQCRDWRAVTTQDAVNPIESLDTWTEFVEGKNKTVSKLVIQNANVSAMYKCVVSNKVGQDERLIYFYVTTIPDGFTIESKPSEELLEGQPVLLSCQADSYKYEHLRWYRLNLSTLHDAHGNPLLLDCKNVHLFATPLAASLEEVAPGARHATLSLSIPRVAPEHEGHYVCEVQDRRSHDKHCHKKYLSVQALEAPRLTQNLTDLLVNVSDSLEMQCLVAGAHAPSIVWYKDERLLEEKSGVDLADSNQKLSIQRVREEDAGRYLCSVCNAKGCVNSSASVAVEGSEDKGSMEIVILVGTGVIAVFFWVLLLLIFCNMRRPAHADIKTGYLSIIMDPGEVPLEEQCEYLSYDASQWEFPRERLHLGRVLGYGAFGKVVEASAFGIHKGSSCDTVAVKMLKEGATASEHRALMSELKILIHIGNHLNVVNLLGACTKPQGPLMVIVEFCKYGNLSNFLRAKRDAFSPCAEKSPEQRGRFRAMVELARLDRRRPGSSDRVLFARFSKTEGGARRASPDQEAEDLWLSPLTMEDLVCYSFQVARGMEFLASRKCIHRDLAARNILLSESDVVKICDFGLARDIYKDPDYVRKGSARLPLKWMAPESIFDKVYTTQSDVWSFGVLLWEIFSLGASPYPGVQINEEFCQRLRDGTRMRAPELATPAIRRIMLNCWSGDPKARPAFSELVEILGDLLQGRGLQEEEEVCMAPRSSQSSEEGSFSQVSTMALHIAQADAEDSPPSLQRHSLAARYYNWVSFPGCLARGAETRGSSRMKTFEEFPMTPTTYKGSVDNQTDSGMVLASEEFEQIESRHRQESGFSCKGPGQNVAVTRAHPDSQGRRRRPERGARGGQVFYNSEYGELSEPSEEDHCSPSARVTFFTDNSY
# Procedure: as §7
# KP-1/VEGF transfectants = experiment: In vitro growth of KP-1/VEGF transfectants; assay type: cell-based; conditions: Homo sapiens
# Procedure: as §6
# HUVECs [6] = experiment: FGF-2 induced proliferation of HUVECs; assay type: cell-based; conditions: Homo sapiens, HUVEC, 72 h; FGF2 20 ng/mL, 3 days, WST-1
# Procedure: as §6
# [7] = test system: SK-OV-3 (Ovary) xenograft; experiment: Subcutaneous xenograft model, SK-OV-3; assay type: in vivo, mouse; conditions: SK-OV-3 xenograft
# Procedure: as §4
# [8] = test system: MIApaca-II (Pancreas) xenograft; experiment: Subcutaneous xenograft model, MIApaca-II; assay type: in vivo, mouse
# Procedure: as §4
# KIT = target: T4, KIT (Homo sapiens, UniProt P10721); experiment: In vitro kinase assay KIT; assay type: biochemical
# T4 construct: purchased Carna Biosciences, Inc. (Kobe, Japan)
# [9] = Tolerability in tumor-bearing nude mice; assay type: in vivo
# Procedure: as §4
# [10] = test system: A431 (Epidermoid) xenograft; experiment: Subcutaneous xenograft model, A431; assay type: in vivo, mouse
# Procedure: as §4
# [11] = test system: MDA-MB 435 (Melanoma) xenograft; experiment: Subcutaneous xenograft model, MDA-MB 435; assay type: in vivo, mouse; conditions: MDA-MB 435 xenograft
# Procedure: as §4
# DU145 (Prostate) = experiment: Tumor cell proliferation assay (MTT), DU145; assay type: cell-based; conditions: Homo sapiens, DU-145, read-out: IC50 in vitro anti-proliferative activity
# Procedure: as §5
# [12] = test system: Colo205 (Colon) xenograft; experiment: Subcutaneous xenograft model, Colo205; assay type: in vivo, mouse
# Procedure: as §4
# FGFR1 = target: T5, FGFR1 (Homo sapiens, UniProt P11362); experiment: In vitro kinase assay FGFR1; assay type: biochemical
# T5 construct: purchased Carna Biosciences, Inc. (Kobe, Japan)
# T5 sequence (P11362 22-822): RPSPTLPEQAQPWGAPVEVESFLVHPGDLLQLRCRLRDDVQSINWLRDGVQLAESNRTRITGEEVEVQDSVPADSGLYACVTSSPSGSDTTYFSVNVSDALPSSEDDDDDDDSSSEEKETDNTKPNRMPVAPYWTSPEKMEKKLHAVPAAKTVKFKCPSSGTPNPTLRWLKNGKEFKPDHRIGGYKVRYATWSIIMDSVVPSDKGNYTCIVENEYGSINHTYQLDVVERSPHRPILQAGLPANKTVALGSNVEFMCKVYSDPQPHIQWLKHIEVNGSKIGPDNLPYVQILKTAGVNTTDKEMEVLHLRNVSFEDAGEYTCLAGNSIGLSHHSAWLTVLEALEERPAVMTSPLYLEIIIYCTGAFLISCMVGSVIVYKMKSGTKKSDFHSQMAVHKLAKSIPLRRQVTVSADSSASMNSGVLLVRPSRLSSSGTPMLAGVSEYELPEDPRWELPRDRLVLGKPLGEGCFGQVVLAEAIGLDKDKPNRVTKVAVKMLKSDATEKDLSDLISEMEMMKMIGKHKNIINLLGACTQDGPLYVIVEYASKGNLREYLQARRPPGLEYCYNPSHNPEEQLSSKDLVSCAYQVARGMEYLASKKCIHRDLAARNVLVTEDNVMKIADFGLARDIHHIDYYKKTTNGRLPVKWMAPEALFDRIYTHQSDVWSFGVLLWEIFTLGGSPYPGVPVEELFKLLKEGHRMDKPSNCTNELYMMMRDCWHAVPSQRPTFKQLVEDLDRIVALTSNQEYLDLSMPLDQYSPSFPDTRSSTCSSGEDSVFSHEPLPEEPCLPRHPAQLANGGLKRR
# Procedure: as §7
# A431 (Epidermoid) = experiment: Tumor cell proliferation assay (MTT), A431; assay type: cell-based; conditions: Homo sapiens, A-431, read-out: IC50 in vitro anti-proliferative activity
# Procedure: as §5
# HUVECs [13] = experiment: VEGF-induced sandwich tube formation (sTF) of HUVECs; assay type: cell-based; conditions: Homo sapiens, HUVEC, 96 h; sTF assay, EGF 10 ng/mL with VEGF 20 ng/mL, 4 days
# Procedure: as §3
# [14] = test system: DU145 (Prostate) xenograft; experiment: Subcutaneous xenograft model, DU145; assay type: in vivo, mouse
# Procedure: as §4
# VEGFR1 (FLT1) = target: T6, VEGFR1 (FLT1) (Homo sapiens, UniProt P17948); experiment: In vitro kinase assay VEGFR1 (FLT1); assay type: biochemical
# T6 construct: purchased Carna Biosciences, Inc. (Kobe, Japan)
# T6 sequence (P17948 27-1338): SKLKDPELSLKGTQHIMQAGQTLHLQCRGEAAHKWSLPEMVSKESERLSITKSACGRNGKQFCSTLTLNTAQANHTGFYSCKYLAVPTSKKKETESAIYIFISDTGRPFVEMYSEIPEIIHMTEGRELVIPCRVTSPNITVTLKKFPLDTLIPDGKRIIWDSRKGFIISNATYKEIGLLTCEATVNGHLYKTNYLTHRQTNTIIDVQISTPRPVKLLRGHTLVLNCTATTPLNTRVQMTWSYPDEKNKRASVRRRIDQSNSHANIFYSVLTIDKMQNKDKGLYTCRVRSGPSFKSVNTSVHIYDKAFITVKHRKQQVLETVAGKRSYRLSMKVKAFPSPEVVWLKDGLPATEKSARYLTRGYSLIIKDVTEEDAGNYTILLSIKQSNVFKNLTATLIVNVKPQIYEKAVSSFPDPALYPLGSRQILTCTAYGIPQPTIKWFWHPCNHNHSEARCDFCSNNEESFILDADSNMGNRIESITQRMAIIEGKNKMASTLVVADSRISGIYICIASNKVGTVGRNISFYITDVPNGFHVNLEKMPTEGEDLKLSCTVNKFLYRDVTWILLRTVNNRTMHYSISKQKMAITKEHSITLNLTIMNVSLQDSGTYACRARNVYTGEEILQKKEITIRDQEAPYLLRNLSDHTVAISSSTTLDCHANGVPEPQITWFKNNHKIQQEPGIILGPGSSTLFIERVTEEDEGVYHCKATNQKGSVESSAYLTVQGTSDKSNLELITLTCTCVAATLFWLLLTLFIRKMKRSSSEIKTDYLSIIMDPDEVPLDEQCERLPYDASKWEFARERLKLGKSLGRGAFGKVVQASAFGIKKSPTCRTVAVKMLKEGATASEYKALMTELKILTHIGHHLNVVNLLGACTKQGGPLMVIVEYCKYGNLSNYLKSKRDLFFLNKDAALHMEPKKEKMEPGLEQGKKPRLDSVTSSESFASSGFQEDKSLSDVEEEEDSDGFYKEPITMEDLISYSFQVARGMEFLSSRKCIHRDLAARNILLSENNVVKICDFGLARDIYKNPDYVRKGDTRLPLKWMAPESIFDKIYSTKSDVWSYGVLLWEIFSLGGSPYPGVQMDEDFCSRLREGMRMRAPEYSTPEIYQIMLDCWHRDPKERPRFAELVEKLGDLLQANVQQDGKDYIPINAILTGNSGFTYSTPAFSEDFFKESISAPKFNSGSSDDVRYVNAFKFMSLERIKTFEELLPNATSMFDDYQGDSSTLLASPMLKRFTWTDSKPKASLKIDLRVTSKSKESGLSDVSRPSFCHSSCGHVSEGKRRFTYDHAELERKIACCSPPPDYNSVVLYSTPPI
# Procedure: as §7
# Colo205 (Colon) = experiment: Tumor cell proliferation assay (MTT), Colo205; assay type: cell-based; conditions: Homo sapiens, COLO 205, read-out: IC50 in vitro anti-proliferative activity
# Procedure: as §5
# [15] = 1 mg/kg orally twice daily for 14 days
# [16] = 3 mg/kg orally twice daily for 14 days
# [17] = 10 mg/kg orally twice daily for 14 days
# [18] = 30 mg/kg orally twice daily for 14 days
# [19] = 100 mg/kg orally twice daily for 14 days
# [20] = 1 mg/kg orally twice daily for 28 days
# [21] = 3 mg/kg orally twice daily for 28 days
# [22] = 10 mg/kg orally twice daily for 28 days
# [23] = 30 mg/kg orally twice daily for 28 days
# [24] = 100 mg/kg orally twice daily for 28 days
structure (smiles),measurement,setting,value
"CNC(=O)c1cc(Oc2ccc(NC(=O)Nc3ccc(Cl)c(C(F)(F)F)c3)cc2)ccn1 [sorafenib, reference compound]","Antiangiogenic activity, KP-1/VEGF DAS model",[1],selective antiangiogenic activity
same,"Inhibition of FGF-driven in vivo angiogenesis, KP-1/FGF DAS assay",[2],did not inhibit
same,IC50,[3],2 µM
"COc1cc2nccc(Oc3ccc(NC(=O)NC4CC4)c(Cl)c3)c2cc1C(N)=O [lenvatinib, 4-[3-Chloro-4-(N’-cyclopropylureido)phenoxy]-7-methoxyquinoline-6-carboxamide]",IC50,HUVECs [4],0.59 µM
same,ΔTV (%) lenvatinib (mg/kg) 1,H460 (Lung) xenograft; [15],65.4%
same,ΔTV (%) lenvatinib (mg/kg) 3,H460 (Lung) xenograft; [16],34.9* %
same,ΔTV (%) lenvatinib (mg/kg) 10,H460 (Lung) xenograft; [17],16.3* %
same,ΔTV (%) lenvatinib (mg/kg) 30,H460 (Lung) xenograft; [18],16.4* %
same,ΔTV (%) lenvatinib (mg/kg) 100,H460 (Lung) xenograft; [19],-0.8* %
same,"Antitumor activity, SEKI model",SEKI model,no effect
same,IC50,MDA-MB 435 (Melanoma),24.2 µM
same,IC50,HUVECs [5],0.0034 µM
same,Ki,FGFR3,0.015 µM
same,IC50,H460 (Lung),26.3 µM
same,Ki,FGFR2,0.0082 µM
same,IC50,SK-OV-3 (Ovary),26.4 µM
same,IC50,MIApaca-II (Pancreas),33.8 µM
same,Ki,VEGFR3 (FLT4),0.00071 µM
same,IC50,KP-1/VEGF transfectants,19.6 µM
same,IC50,HUVECs [6],0.41 µM
same,ΔTV (%) lenvatinib (mg/kg) 1,[7]; [15],52.3* %
same,ΔTV (%) lenvatinib (mg/kg) 3,[7]; [16],39.6* %
same,ΔTV (%) lenvatinib (mg/kg) 10,[7]; [17],12.2* %
same,ΔTV (%) lenvatinib (mg/kg) 30,[7]; [18],8.3* %
same,ΔTV (%) lenvatinib (mg/kg) 100,[7]; [19],-15.6* %
same,ΔTV (%) lenvatinib (mg/kg) 1,[8]; [15],56.1* %
same,ΔTV (%) lenvatinib (mg/kg) 3,[8]; [16],49.9* %
same,ΔTV (%) lenvatinib (mg/kg) 10,[8]; [17],30.1* %
same,ΔTV (%) lenvatinib (mg/kg) 30,[8]; [18],15.3* %
same,ΔTV (%) lenvatinib (mg/kg) 100,[8]; [19],12.5* %
same,Ki,KIT,0.011 µM
same,Losses of body weights,"[9]; 100 mg/kg twice daily for 4 weeks, observed in 3 out of 7 models",< 10%
same,MTD at 4 weeks,"[9]; mouse, in vivo, oral, tumor xenograft models, read-out: Maximum tolerated dose (MTD)",100 mg/kg
same,ΔTV (%) lenvatinib (mg/kg) 1,[10]; [15],41.7%
same,ΔTV (%) lenvatinib (mg/kg) 3,[10]; [16],29.4* %
same,ΔTV (%) lenvatinib (mg/kg) 10,[10]; [17],0.0* %
same,ΔTV (%) lenvatinib (mg/kg) 30,[10]; [18],-7.5* %
same,ΔTV (%) lenvatinib (mg/kg) 100,[10]; [19],-32.9* %
same,ΔTV (%) lenvatinib (mg/kg) 1,[11]; [20],55.7* %
same,ΔTV (%) lenvatinib (mg/kg) 3,[11]; [21],56.9* %
same,ΔTV (%) lenvatinib (mg/kg) 10,[11]; [22],40.2* %
same,ΔTV (%) lenvatinib (mg/kg) 30,[11]; [23],21.2* %
same,ΔTV (%) lenvatinib (mg/kg) 100,[11]; [24],25.7* %
same,IC50,DU145 (Prostate),30.8 µM
same,ΔTV (%) lenvatinib (mg/kg) 1,[12]; [15],43.8* %
same,ΔTV (%) lenvatinib (mg/kg) 3,[12]; [16],23.1* %
same,ΔTV (%) lenvatinib (mg/kg) 10,[12]; [17],12.8* %
same,ΔTV (%) lenvatinib (mg/kg) 30,[12]; [18],-4.5* %
same,ΔTV (%) lenvatinib (mg/kg) 100,[12]; [19],-21.3* %
same,Ki,FGFR1,0.022 µM
same,IC50,A431 (Epidermoid),30.8 µM
same,IC50,HUVECs [13],0.0027 µM
same,ΔTV (%) lenvatinib (mg/kg) 1,[14]; [20],-7.5* %
same,ΔTV (%) lenvatinib (mg/kg) 3,[14]; [21],-42.2* %
same,ΔTV (%) lenvatinib (mg/kg) 10,[14]; [22],-65.4* %
same,ΔTV (%) lenvatinib (mg/kg) 30,[14]; [23],-72.0* %
same,ΔTV (%) lenvatinib (mg/kg) 100,[14]; [24],-78.6* %
same,Ki,VEGFR1 (FLT1),0.0013 µM
same,IC50,Colo205 (Colon),27.5 µM
